Data: patent EP4799624A2 (priority 2021, dated 2023)

Assay: in vivo
Details: mouse, po

For `Cc1c(-c2ccc(O)cc2)n(Cc2ccc(OCCN3CCCCC3)cc2)c2ccc(O)cc12` [Pipendoxifene, 2-(4-hydroxyphenyl)-3-methyl-1-[[4-(2-piperidin-1-ylethoxy)phenyl]methyl]indol-5-ol], the NOAEL was at least 750 mg/kg/day.
